Reference: patent US10442804B2, “Compounds for the treatment of hepatitis B virus infection” (Gilead Sciences, Inc., priority 2017, dated 2019)
Read-outs that look alike come from different tables or passages of the source.

Key:
MT-4 cytotoxicity assay = assay type: cell-based, human; conditions: human
[1] = system: HBV-infected NTCP-HepG2 cells, secreted HBsAg; test: microbe, parasite or virus in culture; assay type: cell-based, hepatitis B virus (genotype D, AD38-derived); conditions: secreted HBsAg in supernatant after 5 days, geometric mean of minimum four determinations, read-out: NTCP HBsAg EC50
Method in brief: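 NTCP-HepG2 cells were infected with genotype D HBV at 4000 genome equivalents/cell, then seeded 4 days post-infection with serially diluted compounds (1% DMSO) for 5 days. Supernatant HBsAg was measured by chemiluminescent MSD immunoassay. EC50 from four-parameter fit, geometric mean of ≥4 determinations.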

[2] = five days, Cell Titer Glo luminescence, read-out: MT-4 CC50

SMILES | CC50 at 5 days (MT-4 cytotoxicity assay; [2]) [nM] | EC50 ([1]; Hepatitis B virus, 120 h) [nM] | CC50 at 5 days (MT-4 cytotoxicity assay; MT-4 CC50) [nM] | EC50 [1] [nM]
COCCCOc1cc2c(cc1Cl)-c1cc(=O)c(C(=O)O)cn1N1[C@@H]2CC1(C)C [Example 46, (R)-10-chloro-11-(3-methoxypropoxy)-2,2-dimethyl-7-oxo-1,2,7,12b-tetrahydroazeto[2,1-a]pyrido[1,2-c]phthalazine-6-carboxylic acid and (S)-10-chloro-1-(3-methoxypropoxy)-2,2-dimethyl-7-oxo-1,2,7,12b-tetrahydroazeto[2,1-a]pyrido[1,2-c]phthalazine-6-carboxylic acid] | > 10000 | 7.8 | – | –
CC(C)(C)OC(=O)[C@H]1CCN(c2cc3c(cc2OC(F)(F)F)-c2cc(=O)c(C(=O)O)cn2N2[C@@H]3CCC2(C)C)C1 [Compound 115, (R)-12-((S)-3-(tert-butoxycarbonyl)pyrrolidin-1-yl)-3,3-dimethyl-8-oxo-11-(trifluoromethoxy)-2,3,8,13b-tetrahydro-1H-pyrido[2,1-a]pyrrolo[1,2-c]phthalazine-7-carboxylic acid] | 8300 | 2.9 | – | –
CC1(C)CC[C@@H]2c3cc(C#CC(C)(C)S(C)(=O)=O)c(OC(F)F)cc3-c3cc(=O)c(C(=O)O)cn3N21 [Compound 112, (R)-11-(difluoromethoxy)-3,3-dimethyl-12-(3-methyl-3-(methylsulfonyl)but-1-yn-1-yl)-8-oxo-2,3,8,13b-tetrahydro-1H-pyrido[2,1-a]pyrrolo[1,2-c]phthalazine-7-carboxylic acid] | > 10000 | 2.7 | – | –
COCCCOc1cc2c(cc1Cl)-c1cc(=O)c(C(=O)O)cn1N1[C@@H]2COCC1(C)C (single isomer, unassigned) [Example 51] | > 10000 | 2.9 | – | –
COCCCOc1cc2c(cc1OC)-c1cc(=O)c(C(=O)O)cn1N1[C@@H]2CCCC1(C)C (single isomer, unassigned) [Example 52] | > 10000 | 0.91 | – | –
COCCCOc1cc2c(cc1Cl)-c1cc(=O)c(C(=O)O)cn1N1CCC[C@H]21 (single isomer, unassigned) [Example 2] | 3900 | 110 | – | –
COCCCOc1cc2c(cc1OCCCOC)[C@@H]1CCC(C)(C)N1n1cc(C(=O)O)c(=O)cc1-2 [Example 24, (S)-11,12-bis(3-methoxypropoxy)-3,3-dimethyl-8-oxo-2,3,8,13b-tetrahydro-1H-pyrido[2,1-a]pyrrolo[1,2-c]phthalazine-7-carboxylic acid] | > 10000 | > 1000 | – | –
COCCCOc1cc2c(cc1COC)-c1cc(=O)c(C(=O)O)cn1N1[C@@H]2COCC1(C)C [Example 102, (S)-12-(methoxymethyl)-13-(3-methoxypropoxy)-4,4-dimethyl-9-oxo-3,4,9,14b-tetrahydro-1H-[1,4]oxazino[3,4-a]pyrido[1,2-c]phthalazine-8-carboxylic acid] | > 10000 | 11.5 | – | –
CC1(COc2cc3c(cc2Cl)-c2cc(=O)c(C(=O)O)cn2N2[C@@H]3CCC2(C)C)COC1 [Example 49, (R)-11-chloro-3,3-dimethyl-12-((3-methyloxetan-3-yl)methoxy)-8-oxo-2,3,8,13b-tetrahydro-1H-pyrido[2,1-a]pyrrolo[1,2-c]phthalazine-7-carboxylic acid] | > 10000 | 3.8 | – | –
COCCCOc1cc2c(cc1Cl)-c1cc(=O)c(C(=O)O)cn1N1[C@@H]2CCC12COC(C)(C)OC2 [Example 81, (R)-11-chloro-12-(3-methoxypropoxy)-2′,2′-dimethyl-8-oxo-1,2,8,13b-tetrahydrospiro[pyrido[2,1-a]pyrrolo[1,2-c]phthalazine-3,5′-[1,3]dioxane]-7-carboxylic acid] | > 10000 | 386 | – | –
COC(C)(C)C#Cc1cc2c(cc1Cl)-c1cc(=O)c(C(=O)O)cn1N1[C@@H]2CCC12CC2 [Example 85, (R)-11′-chloro-12′-(3-methoxy-3-methylbut-1-yn-1-yl)-8′-oxo-1′,2′,8′,13b′-tetrahydrospiro[cyclopropane-1,3′-pyrido[2,1-a]pyrrolo[1,2-c]phthalazine]-7′-carboxylic acid] | – | 4.1 | > 10000 | –
COCCCOc1cc2c(cc1Cl)-c1cc(=O)c(C(=O)O)cn1N1C2CCC12CC2 (stereo not drawn) [Example 59, 11′-chloro-12′-(3-methoxypropoxy)-8′-oxo-1′,2′,8′,13b′-tetrahydrospiro[cyclopropane-1,3′-pyrido[2,1-a]pyrrolo[1,2-c]phthalazine]-7′-carboxylic acid] | – | 6 | > 10000 | –
COCCCOc1cc2c(cc1Cl)-c1cc(=O)c(C(=O)O)cn1N1CC(C)(C)C[C@@H]21 (single isomer, unassigned) [Example 30] | > 10000 | 10 | – | –
COCCCOc1cc2c(cc1Cl)-c1cc(=O)c(C(=O)O)cn1[C@H]1[C@H]2CCC1(C)C (racemic) [Example 31, trans-10-Chloro-11-(3-methoxypropoxy)-3,3-dimethyl-7-oxo-1,2,3,3a,7,12b-hexahydrocyclopenta[c]pyrido[2,1-a]isoquinoline-6-carboxylic acid] | > 10000 | – | – | 6.4
COCCCOc1cc2c(cc1Cl)-c1cc(=O)c(C(=O)O)cn1N1[C@@H]2CCC12COC2 [Example 82, (R)-11′-chloro-12′-(3-methoxypropoxy)-8′-oxo-1′,2′,8′,13b′-tetrahydrospiro[oxetane-3,3′-pyrido[2,1-a]pyrrolo[1,2-c]phthalazine]-7′-carboxylic acid] | – | 72 | > 10000 | –
COCCCOc1cc2c(cc1Cl)-c1cc(=O)c(C(=O)O)cn1N1CCC(C)(C)[C@H]21 (single isomer, unassigned) [Example 47] | 1700 | 16 | – | –
COc1cc2c(cc1OCC1COC1)[C@H]1CCC(C)(C)N1n1cc(C(=O)O)c(=O)cc1-2 [Example 16, (R)-11-methoxy-3,3-dimethyl-12-(oxetan-3-ylmethoxy)-8-oxo-2,3,8,13b-tetrahydro-1H-pyrido[2,1-a]pyrrolo[1,2-c]phthalazine-7-carboxylic acid] | > 10000 | 7.8 | – | –
CC1(C)CC[C@@H]2c3cc(OCC45CC(C#N)(C4)C5)c(C4CC4)cc3-c3cc(=O)c(C(=O)O)cn3N21 [Example 99, (R)-12-((3-cyanobicyclo[1.1.1]pentan-1-yl)methoxy)-11-cyclopropyl-3,3-dimethyl-8-oxo-2,3,8,13b-tetrahydro-1H-pyrido[2,1-a]pyrrolo[1,2-c]phthalazine-7-carboxylic acid] | 3600 | 0.66 | – | –
COc1cc2c(cc1C#Cc1cnc3cccnn13)[C@H]1CCC(C)(C)N1n1cc(C(=O)O)c(=O)cc1-2 [Example 68, (R)-12-(imidazo[1,2-b]pyridazin-3-ylethynyl)-11-methoxy-3,3-dimethyl-8-oxo-2,3,8,13b-tetrahydro-1H-pyrido[2,1-a]pyrrolo[1,2-c]phthalazine-7-carboxylic acid] | > 10000 | 2.9 | – | –
COCCCOc1cc2c(cc1Cl)-c1cc(=O)c(C(=O)O)cn1N1[C@H]2CCCC1(C)C (single isomer, unassigned) [Example 13] | > 10000 | 34 | – | –
COc1cc2c(cc1OCC1CC(F)(F)C1)[C@H]1CCC(C)(C)N1n1cc(C(=O)O)c(=O)cc1-2 [Example 50, (R)-12-((3,3-difluorocyclobutyl)methoxy)-11-methoxy-3,3-dimethyl-8-oxo-2,3,8,13b-tetrahydro-1H-pyrido[2,1-a]pyrrolo[1,2-c]phthalazine-7-carboxylic acid] | > 10000 | 1 | – | –
